The record followed here is ChEMBL document CHEMBL6182895, “Synthesis, in vitro and in vivo evaluation, and computational modeling analysis of thioxothiazolidine derivatives as highly potent and selective α-amylase inhibitors” (Eur J Med Chem, 2025).

The structures appear in SMILES notation. Active and inactive are the calls of the source. The calls are words filed in the database; no cut-off is given here.

By inhibition is commonly meant the relative decrease from the control value, in per cent. As usually defined, the IC50 is the concentration at which inhibition is half-maximal.

The species entered for experiment [1] is Homo sapiens. In words: Inhibition of alpha-glucosidase (unknown origin) using p-NPG as substrate preincubated for 5 mins followed by substrate addition and measured after 30 mins relative to control. More on the design: concentration or dose not given beside the values. To be noted: time 35.0 min.
The species named for experiment [2] is Homo sapiens. Put plainly: Inhibition of alpha-amylase (unknown origin) using starch as substrate preincubated for 10 mins followed by substrate addition and measured after 10 mins relative to control. More on the design: concentration or dose not given beside the values. To be noted: time 20.0 min.
The species entered for experiment [3] is Homo sapiens. Put plainly: Potency index, ratio of acarbose IC50 to test compound IC50 for inhibition of alpha-amylase (unknown origin) using starch as substrate preincubated for 10 mins followed by substrate addition and measured after 10 mins. To be noted: time 20.0 min.
A short description of experiment [4]: Inhibition of alpha-amylase (unknown origin) using starch as substrate preincubated for 10 mins followed by substrate addition and measured after 10 mins. More on the design: species or system Homo sapiens.
The subject of experiment [5] is Rattus norvegicus. In words: Antidiabetic activity against streptozotocin-induced diabetic Wistar rat model assessed as restoration of metabolic homeostasis by measuring serum urea level at 10 mg/kg, po measured on day 1 to 14 (reference value: 124.68 +/-2.16 mg/dl). The class given is functional. Conditions: time 1-14 day.
Experiment [6] deals with Rattus norvegicus. Put plainly: Antidiabetic activity against streptozotocin-induced diabetic Wistar rat model assessed as blood glucose level at 10 mg/kg, po and measured on day 14 (reference value: 388.3 +/-6.34 mg/dl). In kind it is functional. To be noted: time 14 day.
The subject of experiment [7] is Rattus norvegicus. In words: Antidiabetic activity against streptozotocin-induced diabetic Wistar rat model assessed as restoration of metabolic homeostasis by measuring decrease in […] level in serum at 10 mg/kg, po measured on day 1 to 14. In kind it is functional, organism-based. To be noted: time 1-14 day.
In experiment [8] the test system is Rattus norvegicus. Put plainly: Antidiabetic activity against streptozotocin-induced diabetic Wistar rat model assessed as restoration of metabolic homeostasis by measuring AST level in serum at 10 mg/kg, po measured on day 1 to 14 (reference value: 133.49 +/-2.52 IU/L). The class given is functional. Conditions: time 1-14 day.
The species entered for experiment [9] is Homo sapiens. In words: Mixed type of inhibition of alpha-amylase (unknown origin) assessed as change in Km and Vmax of substrate using starch as substrate and measured after 10 mins by Lineweaver-burk plot analysis.
Experiment [10] has as its system Rattus norvegicus. Put plainly: Protection against diabetes-induced organ dysfunction in streptozotocin-induced diabetic Wistar rat model assessed as reduction in kidney damage by measuring kidney with structural improvement and reduced retraction, preserved glomeruli and less hemorrhages at 10 mg/kg, po and measured on day 14 by Hematoxylin-Eosin staining based analysis. To be noted: time 14.0 day. The class given is functional, organism-based.

The test system of experiment [11] is Rattus norvegicus. In words: Antidiabetic activity against streptozotocin-induced diabetic Wistar rat model assessed as restoration of metabolic homeostasis by measuring serum creatinine level at 10 mg/kg, po measured on day 1 to 14 (reference value: 116.81 +/-9.26 uM). In kind it is functional. Conditions: time 1-14 day.
The test system of experiment [12] is Rattus norvegicus. Put plainly: Antidiabetic activity against streptozotocin-induced diabetic Wistar rat model assessed as blood glucose level at 10 mg/kg, po and measured on day 7 (reference value: 378.8 +/-6.48 mg/dl). The class given is functional. Conditions: time 7 day.
The test system of experiment [13] is Rattus norvegicus. Put plainly: Antidiabetic activity against streptozotocin-induced diabetic Wistar rat model assessed as blood glucose level at 10 mg/kg, po and measured on day 1 (reference value: 324.7 +/-6.24 mg/dl). In kind it is functional. To be noted: time 1 day.
Experiment [14] has as its system Rattus norvegicus. In words: Antidiabetic activity against streptozotocin-induced diabetic Wistar rat model assessed as restoration of metabolic homeostasis by measuring ALP level in serum at 10 mg/kg, po measured on day 1 to 14 (reference value: 195.13 +/-1.08 IU/L). In kind it is functional. Conditions: time 1-14 day.
Experiment [15] relates to Rattus norvegicus. In words: Protection against diabetes-induced organ dysfunction in streptozotocin-induced diabetic Wistar rat model assessed as reduction in liver damage by measuring improved hepatic sinusoid congestion and healthier hepatocytes with reduced lipid droplets at 10 mg/kg, po and measured on day 14 by Hematoxylin-Eosin staining based analysis. The class given is functional, organism-based. To be noted: time 14.0 day.

Experiment [16] relates to Rattus norvegicus. Put plainly: Antidiabetic activity against streptozotocin-induced diabetic Wistar rat model assessed as restoration of metabolic homeostasis by measuring ALT level in serum at 10 mg/kg, po measured on day 1 to 14 (reference value: 35.2 +/-1.58 IU/L). In kind it is functional. Conditions: time 1-14 day.
Experiment [17] has as its system Rattus norvegicus. In words: Protection against diabetes-induced organ dysfunction in streptozotocin-induced diabetic Wistar rat model assessed as reduction in pancreas damage by measuring well preserved islet structure at 10 mg/kg, po and measured on day 14 by Hematoxylin-Eosin staining based analysis. The class given is functional, organism-based. Conditions: time 14.0 day.

Experiment [18] can be described thus: Inhibition of alpha-amylase (unknown origin). More on the design: species or system Homo sapiens.
Experiment [19] is described as follows: Inhibition of porcine pancreatic alpha-amylase using starch as substrate preincubated for 10 mins followed by substrate addition and measured after 5 mins. More on the design: species or system Sus scrofa.
Experiment [20] deals with Rattus norvegicus. In words: Antidiabetic activity against streptozotocin-induced diabetic Wistar rat model assessed as restoration of metabolic homeostasis by measuring ALT level in serum at 50 mg/kg, po measured on day 1 to 14 (reference value: 35.2 +/-1.58 IU/L). In kind it is functional. To be noted: time 1-14 day.
The test system of experiment [21] is Rattus norvegicus. Put plainly: Antidiabetic activity against streptozotocin-induced diabetic Wistar rat model assessed as restoration of metabolic homeostasis by measuring serum creatinine level at 50 mg/kg, po measured on day 1 to 14 (reference value: 116.81 +/-9.26 uM). To be noted: time 1-14 day. The class given is functional.
The test system of experiment [22] is Rattus norvegicus. Put plainly: Protection against diabetes-induced organ dysfunction in streptozotocin-induced diabetic Wistar rat model assessed as reduction in pancreas damage by measuring visible improvement in islet structure with noticeable signs of atrophy remained at 50 mg/kg, po and measured on day 14 by Hematoxylin-Eosin staining based analysis. The class given is functional, organism-based. To be noted: time 14.0 day.

In experiment [23] the test system is Rattus norvegicus. In words: Antidiabetic activity against streptozotocin-induced diabetic Wistar rat model assessed as restoration of metabolic homeostasis by measuring AST level in serum at 50 mg/kg, po measured on day 1 to 14 (reference value: 133.49 +/-2.52 IU/L). The class given is functional. Conditions: time 1-14 day.
Experiment [24] has as its system Rattus norvegicus. Put plainly: Protection against diabetes-induced organ dysfunction in streptozotocin-induced diabetic Wistar rat model assessed as reduction in kidney damage by measuring kidney with less severe retraction and swelling with measurable hemorrhages in renal tubules and glomeruli at 50 mg/kg, po and measured on day 14 by Hematoxylin-Eosin staining based analysis. The class given is functional, organism-based. To be noted: time 14.0 day.

The subject of experiment [25] is Rattus norvegicus. In words: Antidiabetic activity against streptozotocin-induced diabetic Wistar rat model assessed as restoration of metabolic homeostasis by measuring serum urea level at 50 mg/kg, po measured on day 1 to 14 (reference value: 124.68 +/-2.16 mg/dl). The class given is functional. Conditions: time 1-14 day.
In experiment [26] the test system is Rattus norvegicus. Put plainly: Antidiabetic activity against streptozotocin-induced diabetic Wistar rat model assessed as restoration of metabolic homeostasis by measuring ALP level in serum at 50 mg/kg, po measured on day 1 to 14 (reference value: 195.13 +/-1.08 IU/L). The class given is functional. To be noted: time 1-14 day.
Experiment [27] can be described thus: Inhibition of porcine pancreatic alpha-amylase using starch as substrate preincubated for 10 mins followed by substrate addition and measured after 30 mins. The arrangement: species or system Sus scrofa.
In experiment [28] the test system is Rattus norvegicus. Put plainly: Antidiabetic activity against streptozotocin-induced diabetic Wistar rat model assessed as restoration of metabolic homeostasis by measuring decrease in […] level in serum at 50 mg/kg, po measured on day 1 to 14. In kind it is functional, organism-based. Conditions: time 1-14 day.
Experiment [29] relates to Rattus norvegicus. Put plainly: Antidiabetic activity against streptozotocin-induced diabetic Wistar rat model assessed as blood glucose level at 50 mg/kg, po and measured on day 7 (reference value: 378.8 +/-6.48 mg/dl). The class given is functional. Conditions: time 7 day.
The subject of experiment [30] is Rattus norvegicus. Put plainly: Antidiabetic activity against streptozotocin-induced diabetic Wistar rat model assessed as blood glucose level at 50 mg/kg, po and measured on day 14 (reference value: 388.3 +/-6.34 mg/dl). In kind it is functional. To be noted: time 14 day.
The nature of experiment [31]: Inhibition of alpha-amylase (unknown origin) using starch as substrate measured after 30 mins. The arrangement: species or system Homo sapiens.
Experiment [32] deals with Rattus norvegicus. Put plainly: Antidiabetic activity against streptozotocin-induced diabetic Wistar rat model assessed as blood glucose level at 50 mg/kg, po and measured on day 1 (reference value: 324.7 +/-6.24 mg/dl). In kind it is functional. Conditions: time 1 day.
Experiment [33] concerns Rattus norvegicus. Put plainly: Protection against diabetes-induced organ dysfunction in streptozotocin-induced diabetic Wistar rat model assessed as reduction in liver damage by measuring fewer congestive blood vessels, reduced hepatocyte ballooning with fewer lipid droplets at 50 mg/kg, po and measured on day 14 by Hematoxylin-Eosin staining based analysis. To be noted: time 14.0 day. In kind it is functional, organism-based.

On to `O=C(CN1C(=O)/C(=C/c2nccs2)SC1=S)Nc1c(F)cc(Br)cc1Cl`, for which the inhibition in the experiment listed under Homo sapiens [1] is 5.14%; in the experiment listed under Homo sapiens [2], 47.1%. The Ratio IC50 in the experiment listed under Homo sapiens [3] came out at 21. This molecule also registered an IC50 in experiment [4] of 45.1 µM.
On the same counts, the results for `O=C(CN1C(=O)/C(=C/c2nc3ccccc3s2)SC1=S)Nc1ccc(C(F)(F)F)cc1` are 3.78%, 61.7%, 234 and 4.07 µM.
Regarding `Cn1ccnc1/C=C1\SC(=S)N(CC(=O)Nc2ccc(C(F)(F)F)cc2)C1=O`, the Activity is 57.31 mg/dL with Rattus norvegicus [5]; 106.2 mg/dL in the experiment with Rattus norvegicus [6]; 41.13 IU/L in the experiment on Rattus norvegicus [8]; 82.14 µM with Rattus norvegicus [11]; 149.7 mg/dL in the experiment with Rattus norvegicus [12]; 328.3 mg/dL in the experiment with Rattus norvegicus [13]. The Activity in the experiment with Rattus norvegicus [14] was 138.41 IU/L; with Rattus norvegicus [16], 12.04 IU/L. Further, the values for the inhibition in the experiment listed under Homo sapiens [1] and in the experiment listed under Homo sapiens [2] were 6.43% and 80.4%, respectively. In addition, the result with Rattus norvegicus [7], in the experiment on Rattus norvegicus [10], with Rattus norvegicus [15] and in the experiment with Rattus norvegicus [17] was Active. In the experiment listed under Homo sapiens [9], the inhibition entry is “Active”. Moreover, the Ratio IC50 in the experiment listed under Homo sapiens [3] came out at 1340. The same molecule showed an IC50 in experiment [4] of 0.71 µM.
Turning to `O=C(CN1C(=O)/C(=C/c2csc3ccccc23)SC1=S)Nc1ccc(C(F)(F)F)cc1`, the inhibition in the experiment filed under Homo sapiens [1] is 4.59%; in the experiment listed under Homo sapiens [2], 73.5%. Further, the Ratio IC50 in the experiment filed under Homo sapiens [3] worked out at 68. This molecule also gave an IC50 in [4] of 14 µM.
In experiment [18], `Oc1ccc(-c2nnc(CSc3nc4ccccc4[nH]3)o2)c(O)c1` gave an IC50 of 6.2 µM.
`COC(=O)[C@@H]1N[C@@]2(C(=O)Nc3ccc(Br)cc32)[C@@]2(SC(=S)NC2=O)[C@H]1c1ccccc1` registered an IC50 in experiment [19] of 1.49 µM.
In [18], `COc1ccc(C(=O)NC(=O)NC2CC2)cc1` came in with a 50% inhibitory concentration (IC50) of 1.57 µM.
With `C[C@H]1O[C@H](O[C@H]2[C@H](O)[C@@H](O)[C@@H](O[C@H]3[C@H](O)[C@@H](O)C(O)O[C@@H]3CO)O[C@@H]2CO)[C@H](O)[C@@H](O)[C@@H]1N[C@H]1C=C(CO)[C@@H](O)[C@H](O)[C@H]1O` (stereo not given in full) [ACARBOSE], the inhibition in the experiment filed under Homo sapiens [1] was determined as 76.4%; in the experiment listed under Homo sapiens [2], 81.2%. Also, the Activity was found to be 12.14 IU/L with Rattus norvegicus [20]; 80.21 µM in the experiment with Rattus norvegicus [21]; 48.87 IU/L in the experiment on Rattus norvegicus [23]; 55.28 mg/dL with Rattus norvegicus [25]; 145.34 IU/L in the experiment with Rattus norvegicus [26]; 170.6 mg/dL in the experiment on Rattus norvegicus [29]. In addition, the Activity in the experiment on Rattus norvegicus [30] came to 119.7 mg/dL; in the experiment with Rattus norvegicus [32], 315.8 mg/dL. Also, the IC50 came to 1.56 µM in experiment [19]; 104 µM in experiment [27]; 0.0125 µM in experiment [31]; 951 µM in [4]; 1.06 µM in [18]. The result with Rattus norvegicus [22], with Rattus norvegicus [24], in the experiment on Rattus norvegicus [28] and in the experiment on Rattus norvegicus [33] was Active. For the same molecule, the inhibition result in the experiment listed under Homo sapiens [9] is “Active”.
Consider `O=C1OCc2cc(-c3ccc(C(F)(F)F)cc3)ccc21`, for which the IC50 in experiment [18] is 85.4 µM.
In turn, `CC(=O)N1C(=O)C(Cc2cn(-c3ccc([N+](=O)[O-])cc3[N+](=O)[O-])nc2-c2ccc(O)cc2)SC1=S` (stereo not given) returned an IC50 in [27] of 638 µM.
For the molecule `COc1ccc(C2C(C#N)=C(NC(C)=O)Oc3oc4ccccc4c(=O)c32)cc1` (stereo not given), the IC50 in experiment [31] worked out at 0.00204 µM.
